Among the data in ChEMBL document CHEMBL1153534, “Design and synthesis of androgen receptor antagonists with bulky side chains for overcoming antiandrogen resistance” (J Med Chem, 2009) are IC50 and Activity values, retold here.

Activity calls are given as the source filed them. No cut-off for these calls is given here.

What all share (type): functional, cell-based
In test [1] the test system is PC-3. Kind of test: Cytotoxicity against human PC3 cells after 72 hrs by MTT assay. A general note: Tetrazolium assays rely on reduction of a dye to a coloured formazan, in cell work by metabolically active cells.
Test [2] can be described thus: Cytotoxicity against human MDA PCa 2b cells after 72 hrs by MTT assay.
Test [3] can be described thus: Cytotoxicity against human C4-2B cells after 72 hrs by MTT assay. The note with it: LNCaP C4-2B.
The test system of test [4] is LNCaP. Kind of test: Cytotoxicity against human LNCAP cells after 72 hrs by MTT assay.
For test [5], the system named is CWR22R. Nature of the test: Cytotoxicity against human 22Rv1 cells after 72 hrs by MTT assay. Particulars: 22Rv1, 72 h.
The test system of test [6] is PC-3. Nature of the test: Cytotoxicity against human PC3 cells at 150 uM after 72 hrs by MTT assay.
Where [7] appears, read: Homo sapiens, PC-3, 72 h, read-out: IC50.

What is called IC50 is the midpoint of a concentration-inhibition curve. Regarding `COc1cc(/C=C(\C(=O)/C=C/C2=C(C)CCCC2(C)C)C(=O)/C=C/c2cc(OC)c(O)c(OC)c2)cc(OC)c1O`, the IC50 was 12.5 µM in test [1] (setting [7]); 15.3 µM in test [2]; 8.5 µM in test [3]; 8.7 µM in test [4]; 17.6 µM in test [5].
In the case of `COc1cc(/C=C/C(O)=C/C(=O)/C=C/C2=C(C)CCCC2(C)C)cc(OC)c1OC`, the 50% inhibitory concentration (IC50) was over 50 µM in test [1] (setting [7]), 11.9 µM in test [3], 21.4 µM in test [4] and 17.1 µM in test [5].
As for `COc1cc(/C=C/C(=O)CC(=O)/C=C/c2ccc(O)c(OC)c2)ccc1O` [CURCUMIN], the IC50 in test [1] (setting [7]) worked out at 16.8 µM; in test [3] it was 6.1 µM; in test [4] it was 8.5 µM; in test [5] it was 18.3 µM.
`CC1=C(/C=C/C(=O)/C(=C\c2ccc(O)cc2)C(=O)/C=C/c2ccc(O)cc2)C(C)(C)CCC1`: the IC50 in test [1] (setting [7]) came to 6.7 µM; in test [2] it was 4.7 µM; in test [3] it was 4 µM; in test [4], 4.5 µM; in test [5], 4.7 µM.
Turning to `COc1ccc(/C=C/C(O)=C/C(=O)/C=C/C2=C(C)CCCC2(C)C)cc1O`, the IC50 in test [1] (setting [7]) was 38.3 µM; in test [3], 23.1 µM; in test [4] it was 25.9 µM.
`COc1cc(/C=C/C(O)=C/C(=O)/C=C/C2=C(C)CCCC2(C)C)cc(OC)c1O`: the IC50 was 26.7 µM in test [1] (setting [7]), 9.8 µM in test [3], 6.2 µM in test [4] and 12.2 µM in test [5].
In the same order, the values of `COc1cc(/C=C/C(=O)/C(=C/c2ccc3ccccc3n2)C(=O)/C=C/C2=C(C)CCCC2(C)C)ccc1O` are 15.2 µM, 5.3 µM, 8.5 µM and 5.1 µM.
In the case of `COc1ccc(/C=C/C(O)=C/C(=O)/C=C/C2=C(C)CCCC2(C)C)cn1`, the IC50 in test [1] (setting [7]) was determined as 52.2 µM; in test [4], 25.1 µM.
Take `COc1cc(/C=C/C(O)=C/C(=O)/C=C/C2=C(C)CCCC2(C)C)ccc1O`: the half-inhibitory concentration (IC50) in test [1] (setting [7]) came out at 15.8 µM; in test [3], 44.3 µM; in test [4], 20.6 µM; in test [5], 10.6 µM.
Regarding `CCn1c2ccccc2c2cc(/C=C(\C(=O)/C=C/C3=C(C)CCCC3(C)C)C(=O)/C=C/c3ccc(O)c(OC)c3)ccc21`, the IC50 was 7 µM in test [1] (setting [7]); 8.1 µM in test [2]; 2.3 µM in test [3]; 2.3 µM in test [4]; 2.4 µM in test [5].
Regarding `CC(=O)/C=C/C1=C(C)CCCC1(C)C` [BETA-IONONE], the IC50 entry in test [1] (pc-3) was “Not Active”; in test [4] it was 151 µM. Further, the outcome in test [6] was inactive.
Consider `CCOc1ccc(/C=C(\C(=O)/C=C/C2=C(C)CCCC2(C)C)C(=O)/C=C/c2ccc(OCC)c(OCC)c2)cc1OCC`, for which the half-inhibitory concentration (IC50) in test [1] (setting [7]) stood at 14.1 µM; in test [2], 6.8 µM; in test [3], 4.5 µM; in test [4], 14.9 µM; in test [5], 9.3 µM.
